Source: US20110251286A1, “Crystalline salts and/or co-crystals of O-desmethyltramadol” (GRUENENTHAL GmbH, priority 2010, published 2011)

Columns and labels:
[1] = Determination of equilibrium solubilities in aqueous solutions at various pHs; conditions: thermodynamic from solid
Experimental: The equilibrium solubilities of the compounds investigated were determined in aqueous solutions at various pHs and the pH-dependent solubility profile and the solubilities at different pHs were compared here. In this case, the content determination was carried out by means of capillary electrophoresis.

[2] = Release in artificial intestinal juice; format: physicochemical; conditions: after two to 4 minutes; artificial intestinal juice pH 6.8, 37 °C
Experimental: Investigations on release were carried out in a Sotax AT7 smart release apparatus with UV measurement (Perkin Elmer photometer).
A vessel with Wood apparatus was used (for intrinsic release).
A pressing of 0.5 cm^2 surface area (diameter 8 mm) was produced with a force of 200 N using approximately 100 mg of active ingredient.
Release was carried out in a release medium, which is composed as described below: • Intestinal juice without pancreas powder, pH 6.8 (analogous to Ph. Eur.); 250.0 ml 6.8 g of potassium dihydrogenphosphate R+0.896 g of NaOH+water to 1000.0 ml.
Release was carried out in a release volume of in each case 500±5 ml at a temperature of the release medium of 37±1° C. with a stirring speed of 100±5 rpm.
The content determination was carried out by means of spectroscopic methods (UV spectroscopy, wavelength: 271 nm, cuvette: 10 mm). Sample taking was carried out manually.
In this release experiment, the individual compounds were placed in a permeable bag in an amount in each case calculated on 100 mg of the free base.
The results, expressed in percent of the substance released, are reproduced in the following tables. In this case, the compounds denote: HCl: hydrochloride; A: cinnamate; B: palmitate; C: decanoate; E: hemi-fumarate and F: hemi-sebacate.

CN(C)C[C@H]1CCCC[C@]1(O)c1cccc(O)c1.Cl [hydrochloride, (+)-(1R,2R)-3-[2-(dimethylamino)methyl-1-hydroxycyclohexyl]phenol hydrochloride]
solubility thermodynamic ([1]; aqueous with cosolvent or surfactant or cyclodextrin): 1090 mM
solubility thermodynamic ([1]; pH 1.4, simulated gastric fluid): 582 mM
solubility thermodynamic ([1]; pH 4.3, aqueous buffer): 666 mM
solubility thermodynamic ([1]; pH 6.8, aqueous buffer): 698 mM
solubility thermodynamic ([1]; pH 7.4, aqueous buffer): 867 mM
solubility thermodynamic ([1]; pH 11, aqueous buffer): 979 mM
solubility thermodynamic ([1]; water): 983 mM
substance passed into the artificial intestinal fluid [2]: ~100%
